Measured values from ChEMBL document CHEMBL1147974, “Metabolic activation of indole-containing prostaglandin D2 receptor 1 antagonists: impacts of glutathione trapping and glucuronide conjugation on covalent binding” (Bioorg Med Chem Lett, 2007).

Experiments:
Liver microsomes [1] = assay: Covalent binding in rat liver microsomes at 10 uM after 1 hr; assay type: ADME, Microsome
Hepatocyte [2] = assay: Covalent binding in human hepatocytes at 10 uM after 1 hr; assay type: ADME, cell-based
Hepatocyte [3] = assay: Covalent binding in rat hepatocytes at 10 uM after 1 hr; assay type: ADME, cell-based
Liver microsomes [4] = assay: Covalent binding in rat liver microsomes after 60 mins assessed as GSH adduct formation; assay type: ADME, Microsome; details: 1 h
Liver microsomes [5] = assay: Covalent binding in human liver microsomes at 10 uM after 1 hr; assay type: ADME, Microsome
Liver microsomes [6] = assay: Covalent binding in human liver microsomes after 60 mins assessed as GSH adduct formation; assay type: ADME, Microsome; details: 1 h

Activity (Liver microsomes [1]) [pmol/mg]	Activity (Hepatocyte [2]) [pmol/mg]	Activity (Hepatocyte [3]) [pmol/mg]	Activity (Liver microsomes [4]) [%]	Activity (Liver microsomes [5]) [pmol/mg]	Activity (Liver microsomes [6]) [%]	SMILES
290	16	45	41	46	15	CC(=O)c1cc(F)cc2c3c(n(Cc4ccc(Cl)cc4)c12)[C@@H](CC(=O)O)CC3
23	5	8	< 0.5	18	< 0.5	CC(=O)c1cc(S(C)(=O)=O)cc2c3c(n(Cc4ccc(Cl)cc4)c12)[C@@H](CC(=O)O)CC3
460	33	74	22	33	5	O=C(O)C[C@H]1CCc2c1n(Cc1ccc(Cl)cc1)c1c(Br)cc(F)cc21
